Experimental data published in the METLIN SMRT retention time set (Domingo-Almenara et al. 2019).

Experiment: gradient 5% acetonitrile 3 min, to 50% in 2 min, to 85% in 15 min, held 3 min, 100 µL/min
Details: column: Zorbax Extend-C18 2.1 x 50 mm; eluents: water / acetonitrile, 0.1% formic acid
How it was run: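 Retention times come from adduct peaks that were picked computationally and then checked by hand. The standards, pure and pooled in mixtures of ~100 molecules, were run on a Zorbax Extend-C18 column (2.1 × 50 mm, 1.8 μm) at 100 μL/min with water and acetonitrile, each with 0.1% formic acid. Detection was by quadrupole time-of-flight mass spectrometry in positive and negative ionization mode, with a dead volume of 40 μL and a dwell volume of 900 μL.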

SMILES | RP-LC retention time [s]
Cc1ccc(NC(=O)COc2cccc3c(=O)n(C)ccc23)cc1 | 795
O=C(c1ccc(F)cc1)N1CCN(c2cnn3c(C4CC4)nnc3c2)CC1 | 636
CCOCC(=O)Nc1cccc(OCc2nnc(-c3ccc(OC)cc3)o2)c1 | 830
COc1ccccc1-c1noc(CCn2nc(-c3ccccc3)ccc2=O)n1 | 817
Cc1noc([C@@H]2CN(C(=O)c3ccoc3C)C[C@H]2CO)n1 | 610
Cc1noc(-c2ccc(NC(=O)c3cc(-c4ccco4)on3)cc2)n1 | 902
COCCNC(=O)Cn1c(CO)cnc1SCC(=O)Nc1ccc2c(c1)OCCO2 | 554
CC(C(=O)N1CCN(c2ccccn2)CC1)n1ccc2cc(S(=O)(=O)N3CCCCCC3)ccc21 (stereo unspecified) | 738
Cc1cc(C)n(-c2ccnc(NCC(C)C)n2)n1 | 747
CC(=O)N1CCc2cc(S(=O)(=O)C(C)CC(=O)N3CCN(c4ccccc4F)CC3)ccc21 (stereo unspecified) | 826
Cc1csc(-c2cc(S(=O)(=O)NCc3ccc(N(C)C)cc3)c(C)s2)n1 | 763
CCN1CCCC1CN(CC(=O)N1CCNCC1)S(=O)(=O)c1c(C)cc(C)cc1C (stereo unspecified) | 588
CCc1nc2cc(N3CCCC(C(=O)NCCN4CCN(C)CC4)C3)cnc2nc1CC (stereo unspecified) | 583
CC(=O)N1CCc2cc(S(=O)(=O)Nc3ccc4c(c3)-c3nc(C)sc3CC4)ccc21 | 784
CCNC(=O)N1CCCC(c2cccc(C(=O)NCc3ccccc3C)c2)C1 (stereo unspecified) | 775
O=S(=O)(c1ccccc1-c1nc(-c2ccccc2)no1)N1CCN(c2ccccc2)CC1 | 1220
Cc1nnc2cc(N3CCN(C(=O)Nc4ccc(Cl)cc4)CC3)cnn12 | 657
CC(C)NC(=O)c1c2c(nc3ccc(F)cc13)CCCC2 | 631
Cc1nc(-c2nc(-c3cccs3)cs2)cn1CC(=O)N1CCN(c2ccccc2)CC1 | 813
CCC(C(=O)NCCCN1CCN(CC)CC1)n1nc(C)c2sc3ccccc3c2c1=O (stereo unspecified) | 624
O=C(Nc1ccccc1)N1CCc2[nH]cnc2C1c1ccccc1 (stereo unspecified) | 625
Cc1cccc(-c2nc(Nc3ccc(C(=O)O)cc3)c3ccccc3n2)c1 | 689

SMILES | RP-LC retention time [s]
Cc1ccc(CNC(=O)c2cc3sccc3n2C)cc1 | 958
COc1ccc(-c2noc(C3CCCN3C(=O)Cc3ccsc3)n2)cc1 (stereo unspecified) | 928
O=C(Cn1cccc1-c1nc(-c2ccc3c(c2)OCO3)no1)N1CCCc2ccccc21 | 1120
CC1CCN(c2nc(NCCN3CCOCC3)nc(N3CC4CC(C3)c3cccc(=O)n3C4)n2)CC1 (stereo unspecified) | 555
Nc1nc(Nc2ccccc2)nc2c1ncn2[C@@H]1O[C@H](CO)[C@H](O)C1O (stereo partly specified) | 579
O=C(NCc1ccco1)c1ccc2ccnc(N3CCN(c4ccc(F)cc4)CC3)c2c1 | 782
Cc1ccc(Sc2nccnc2N2CCC(C(=O)N3CCN(c4ccccn4)CC3)CC2)cc1 | 706
COC(=O)c1ccc2c(=O)n(-c3cc(OC)cc(OC)c3)c(N3CCC(C(N)=O)CC3)nc2c1 | 736
COc1ccc(NS(=O)(=O)c2cc(-c3nc(C)c(C(=O)N4CCCC4)s3)n(C)c2)c(OC)c1 | 794
CCCCc1ccc(NC(=O)CSc2cc(N3CCC(C(=O)NCCC)CC3)ncn2)cc1 | 967
CS(=O)(=O)c1ccc(C(=O)N2CCN(c3ccccc3)CC2)cc1 | 683
CC(C)n1c(=O)sc2cc(S(=O)(=O)N3CCC(C(=O)NCc4ccccc4)CC3)ccc21 | 932
COc1cccc(-n2c(=O)c(C(=O)NC3CCCCC3)c(O)c3cccnc32)c1 | 1280
Cc1ccc(CN(C(=O)C(C)Oc2ccc(Cl)c(C)c2)C2CCS(=O)(=O)C2)o1 (stereo unspecified) | 1020
CC(C)c1ccc(N2C(=O)CN(Cc3ccccc3)C3CS(=O)(=O)CC32)cc1 (stereo unspecified) | 854
CCNC(=O)N1CCCN(S(=O)(=O)CC)CC1 | 582
CCc1ccc(NC(=O)C2CCN(S(=O)(=O)c3cc(C(=O)N4CCCC4)cs3)CC2)cc1 | 922
CC(C)CN1CCn2cc(S(=O)(=O)Nc3ccc(F)cc3Cl)cc2C1=O | 838
CC(NC(=O)c1cc2n(n1)CCCC2)c1ccc(F)cc1 (stereo unspecified) | 818
CCOC(=O)c1cc([N+](=O)[O-])sc1NC(=O)CCCS(=O)(=O)c1ccc(F)cc1 | 965
Cc1nnc2c(=O)n(CC(=O)NCc3cccc(F)c3)c3cccnc3n12 | 656
O=C(Cn1c(CN2CCCCC2)nc2ccccc21)N1CCOCC1 | 583

SMILES | RP-LC retention time [s]
O=C(NCCC1=CCCCC1)C1CCCN(c2ncnc3c2oc2ccccc23)C1 (stereo unspecified) | 872
Cc1ccc(C2=NC3(CCN(C(=O)c4cnccn4)CC3)ON2)cc1 | 680
CCn1nc2ccc(S(=O)(=O)N3CCOCC3)cn2c1=O | 645
O=C(c1ccc(Cn2cncn2)cc1)N1CCN(c2ccc(Cl)cc2)CC1 | 774
COc1ccc(C(=O)NCCc2ccc(S(N)(=O)=O)cc2)nn1 | 604
Cc1ccc(=O)n(CCNC(=O)Cc2cn(C)c3ccccc23)n1 | 620
CCC1CN(C(=O)N2CCC(C(=O)NCCc3ccco3)CC2)c2cc(C)ccc2O1 (stereo unspecified) | 706
CCCc1ccc(S(=O)(=O)NCc2c(-c3ccccc3)nc3sc(C)nn23)cc1 | 1030
Cn1cc(C(CNC(=O)Nc2cccc(Br)c2)c2cccnc2)c2ccccc21 (stereo unspecified) | 755
Cc1ccc(NC(=O)N2CCC(n3c(-c4ccoc4)nc4cccnc43)C2)cc1 (stereo unspecified) | 740
Cc1c(C(=O)Nc2ccccc2)sc2nc[nH]c(=O)c12 | 679
COCCN1C(=O)[C@H]2CN(Cc3ccc(F)cc3Cl)C[C@H]2C1=O | 693
COc1ccc(N2CC(C(=O)NCc3ccccc3OC)CC2=O)cc1 (stereo unspecified) | 724
CCCN(c1ccc(F)cc1)c1nc(C(=O)OCC)nc2ccccc12 | 1080
Cc1nnc(-n2cccc2)s1 | 733
CCn1cc(S(=O)(=O)Nc2cc(C)ccc2F)c2cccnc21 | 846
CCOC(=O)c1ccccc1NC(=O)Cn1cccc(-c2nc(-c3ccccc3)no2)c1=O | 1030
COc1ccc(OC)c(NC(=O)c2c(N3CCCC3=O)c3cc(F)ccc3n2C)c1 | 785
O=C(C1CCN(c2cnn(Cc3ccccc3)c(=O)c2)CC1)N1CCOCC1 | 661
O=C(NCCC1=CCCCC1)c1cccc(CN2C(=O)C3CCCN3C(=O)c3ccccc32)c1 (stereo unspecified) | 890
CC(=O)Nc1ccc(SCc2nnc(-c3ccccc3)o2)cc1 | 763
Cc1cccc(C)c1NC(=O)CCCSc1nnnn1-c1ccccc1 | 810
